Measurements as given in patent CN101879305A, “血清胸腺因子在制备抗肿瘤药物、肿瘤物理及化学治疗药物的保护药物方面的用途” (priority 2007, dated 2010).
Ends that are not written are not given here.

How the values were obtained:
EAC腹水瘤 = assay: Anti-tumour test, EAC ascites tumour in mice (Example 1); assay type: in vivo, 昆明小鼠; settings: positive control 5-氟尿嘧啶 25mg·kg-1, every other day, three times
[1] = Immune indicators in Co60-irradiated mice (white cell count, carbon clearance, organ indices) (Example 8); assay type: in vivo, 昆明鼠; settings: 650 rad Co60, after one week
Walker-256瘤 = assay: Anti-tumour test, Walker-256 tumour in rats (Example 3); assay type: in vivo, Wistar大鼠; settings: positive control 环磷酰胺 89.2mg.kg-1, single dose
H22实体瘤 = assay: Anti-tumour test, H22 solid tumour in mice (Example 2); assay type: in vivo, 昆明小鼠; settings: positive control 环磷酰胺 20mg·kg-1, single dose
人肝癌Heps瘤 = assay: Anti-tumour test, human liver cancer Heps xenograft in nude mice (Example 4); assay type: in vivo, 裸鼠; settings: positive control 环磷酰胺 10mg·kg-1, single dose
[2] = Acute toxicity, single tail-vein injection, 7-day observation (Example 7); assay type: in vivo, 昆明小鼠; settings: for 死亡(%): 20 mice, 7 days; for 给药前体重: before dosing (baseline)

O=c1[nH]cc(F)c(=O)[nH]1 [5-氟尿嘧啶]
生存时间(天) (EAC腹水瘤): 24.3±4.1 天 | 生命延长率 (EAC腹水瘤; vs blank group): 82.7 %

C#C[C@]1(O)[C@H](O)C[C@H]2[C@@H]3CCc4cc(OC5CCCC5)ccc4[C@H]3CC[C@@]21C [尼尔雌醇]
体重增加 ([1]; positive control 尼尔雌醇 0.05mg/只 single gavage): 3.47 | 吞噬指数α ([1]; 尼尔雌醇 0.05mg/只 single gavage): 6.00 | 廓清指数K ([1]; 尼尔雌醇 0.05mg/只 single gavage): 0.033 | 白细胞个数(个/mm3) ([1]; 尼尔雌醇 0.05mg/只 single gavage): 2693 个/mm3 | 胸腺指数(mg/10g) ([1]; 尼尔雌醇 0.05mg/只 single gavage): 28.32 mg/10g | 脾指数(mg/10g) ([1]; 尼尔雌醇 0.05mg/只 single gavage): 8.96 mg/10g

C#C[C@]1(O)[C@H](O)C[C@H]2[C@@H]3CCc4cc(OC5CCCC5)ccc4[C@H]3CC[C@@]21C [环磷酰胺]
肿瘤的重量 (Walker-256瘤): 2.6 ± 1.7 g | 抑瘤率(%) (Walker-256瘤; vs blank group): 85.4 % | 实体瘤的重量 (H22实体瘤): 0.6 ± 0.5 g | 抑瘤率 (H22实体瘤; vs blank group): 84.8 % | 抑瘤率 (人肝癌Heps瘤): 62.43 % | 肿瘤的体积(mm3) (人肝癌Heps瘤): 99.73±68.60 mm3 | 肿瘤的重量 (人肝癌Heps瘤): 0.57 ± 0.12 g

EAKSQGGSN [FTS, Glu-Ala-Lys-Ser-Gln-Gly-Gly-Ser-Asn]
死亡(%) ([2]; 5.0 mg/kg (0.5 mg/ml) i.v. tail vein once): 0 % | 给药前体重 ([2]; 5.0 mg/kg group): 22.3 ± 2.1 g | 死亡(%) ([2]; 10.0 mg/kg (1.0 mg/ml) i.v. tail vein once): 0 % | 给药前体重 ([2]; 10.0 mg/kg group): 23.4 ± 3.1 g | 死亡(%) ([2]; 50.0 mg/kg (5.0 mg/ml) i.v. tail vein once): 0 % | 给药前体重 ([2]; 50.0 mg/kg group): 23.6 ± 2.5 g | 死亡(%) ([2]; 100.0 mg/kg (10.0 mg/ml) i.v. tail vein once): 0 % | 给药前体重 ([2]; 100.0 mg/kg group): 23.1 ± 2.8 g | 毒性反应或死亡 ([2]; 5.0, 10.0, 50.0 and 100.0 mg/kg groups, i.v.): 未发现任何毒性反应或死亡
